Data reported in publication PMC9828224, “Expansion of the Catalytic Repertoire of Alcohol Dehydrogenases in Plant Metabolism” (Angewandte Chemie (International Ed. in English), 2022).

Key:
GS = molecular target: T1, GS (Catharanthus roseus, UniProt W8JWW7); test: X-ray crystal structure of complex, […] Å; format: binding; conditions: active site; catalytic and structural zinc bound
T1 construct: construct details only in supplement

CrDPAS = molecular target: T2, CrDPAS (Catharanthus roseus, UniProt A0A1B1FHP3); test: enzymatic turnover, products by MS and NMR with deuterated cofactor; format: biochemical; conditions: NADPH or 4-pro-R-NADPD; 1,4-iminium reduction
T2 construct: gene DPAS; construct details only in supplement; text prints PDB 8B26 for both CrDPAS and apo TiDPAS2
T2 sequence (A0A1B1FHP3 1-365): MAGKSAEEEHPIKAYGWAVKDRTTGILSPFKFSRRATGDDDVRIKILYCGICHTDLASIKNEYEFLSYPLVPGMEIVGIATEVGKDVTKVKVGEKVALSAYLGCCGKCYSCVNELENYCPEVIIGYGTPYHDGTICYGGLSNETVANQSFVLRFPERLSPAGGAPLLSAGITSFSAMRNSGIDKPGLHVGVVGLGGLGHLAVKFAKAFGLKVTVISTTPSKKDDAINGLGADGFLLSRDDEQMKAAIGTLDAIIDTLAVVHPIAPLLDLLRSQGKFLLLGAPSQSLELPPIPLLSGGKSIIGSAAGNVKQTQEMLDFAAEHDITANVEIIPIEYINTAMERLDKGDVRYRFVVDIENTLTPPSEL

T1 sequence (W8JWW7 2-364): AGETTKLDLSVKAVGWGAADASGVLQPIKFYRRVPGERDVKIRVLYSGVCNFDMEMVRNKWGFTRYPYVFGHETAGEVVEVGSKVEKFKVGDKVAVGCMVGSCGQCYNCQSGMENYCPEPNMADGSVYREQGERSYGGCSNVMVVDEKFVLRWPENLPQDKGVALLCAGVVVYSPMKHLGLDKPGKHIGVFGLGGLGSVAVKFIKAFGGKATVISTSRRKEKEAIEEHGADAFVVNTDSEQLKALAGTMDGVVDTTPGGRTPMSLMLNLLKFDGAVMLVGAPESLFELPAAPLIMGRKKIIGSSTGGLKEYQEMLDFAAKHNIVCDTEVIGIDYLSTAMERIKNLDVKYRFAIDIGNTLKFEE

SMILES	X-ray crystal structure of complex, 2.00 Å (GS)	enzymatic turnover, products by MS and NMR with deuterated cofactor (CrDPAS)
NC(=O)c1ccc[n+]([C@@H]2O[C@H](COP(=O)(O)OP(=O)(O)OC[C@H]3O[C@@H](n4cnc5c(N)ncnc54)[C@H](OP(=O)(O)O)[C@@H]3O)[C@@H](O)[C@H]2O)c1 [NADP+]	Active site of GS co‐crystallised with NADP^+	
C/C=C1/C=[N+]2CCc3c([nH]c4ccccc34)[C@@](COC(C)=O)(C(=O)OC)[C@H]1CC2 [precondylocarpine acetate]		we observed product formation when only DPAS and NADPH is incubated with precondylocarpine acetate
